From patent US20060269924A1, “Modulation of telomere-initiated cell signaling” (TRUSTEES OF BOSTON UNIVERSITY, priority 2003, published 2006)
{P} = phosphate

Key:
[1] = system: HT-1080 human fibrosarcoma cells; test: Clonogenic assay; assay type: cell-based; conditions: HT-1080, 40 μM for one week, then replated 2 weeks without treatment
Protocol: Cells were treated with diluent, 40 μM T-oligo or complementary oligo for one week, and then assayed. FIG. 15a: Appearance of stained dishes. FIG. 15b: Quantification of clonogenic capacity. Colonies of triplicate cultures were counted and plotted as percentage of diluent treated control.
Human fibrosarcoma cells were treated with diluent alone, 40 μM T-oligo or 40 μM complementary oligo for one week and were then trypsinized and counted. 300 cells were seeded into 60 mm culture dishes in triplicate and then incubated in complete medium for 2 weeks with medium changed twice per week. Subsequently, the cells were fixed for 5 min in 100% methanol. The methanol was then removed and the culture dishes were rinsed briefly with water. The colonies were stained for 10 min in 4% (w/v) methylene blue solution in PBS, washed once again with water, and then counted.
To determine the long-term effect of T-oligo treatment on cell growth, HT-1080 human fibrosarcoma cells were treated with either diluent alone, 40 μM T-oligo or 40 μM complementary control oligo for one week and then an equal number of cells were replated and medium was changed twice per week for 2 weeks with no further treatment, and then stained with methylene blue (FIG. 15a).

[2] = system: pRb phosphorylation on serine 780, serine 795 and serine 807/811; test: Western blot of pRb phosphorylation in HT-1080 cells; assay type: cell-based, human
Protocol: FIG. 13a: Exposure to T-oligo increases SA-β-Gal activity. HT-1080 cells were treated for 4 days with diluent alone or 40 μM T-oligo or the complementary control oligo, then stained and assayed for SA-β-Gal activity. FIG. 13b: Quantitative analysis of SA-β-Gal positive cells. Cells expressing SA-β-Gal activity were counted and presented as percentage of total cells in the cultures. Averages and standard deviations were calculated from 3 representative fields from each of 3 independent experiments. FIG. 13c: Effect of T-oligo on cell proliferation. Cells were treated for 4 days as in FIG. 12 and assayed for DNA synthesis by BrdU incorporation. FIG. 13d: Quantitative analysis of BrdU incorporation. Dark black nuclei indicate BrdU incorporated into nuclear DNA. BrdU positive cells were calculated and presented as percentage of total cells in the cultures. Averages and standard deviations were calculated from 3 representative fields from each of 3 independent experiments. FIG. 13e: Effect of T-oligo on pRb phosphorylation. Cells were treated as in FIG. 13a and were then collected for protein analysis by western blot using 30 μg total protein and probed for pRb-ser780*, ser795* and ser807/811* (pRb phosphorylated at serine 780, serine 795 and serine 807/811 respectively). […]

[3] = system: human fibrosarcoma HT-1080 cells; test: SA-β-Gal staining, HT-1080 cells; assay type: cell-based
Protocol: FIG. 13a: Exposure to T-oligo increases SA-β-Gal activity. HT-1080 cells were treated for 4 days with diluent alone or 40 μM T-oligo or the complementary control oligo, then stained and assayed for SA-β-Gal activity. FIG. 13b: Quantitative analysis of SA-β-Gal positive cells. Cells expressing SA-β-Gal activity were counted and presented as percentage of total cells in the cultures. Averages and standard deviations were calculated from 3 representative fields from each of 3 independent experiments. FIG. 13c: Effect of T-oligo on cell proliferation. Cells were treated for 4 days as in FIG. 12 and assayed for DNA synthesis by BrdU incorporation. FIG. 13d: Quantitative analysis of BrdU incorporation. Dark black nuclei indicate BrdU incorporated into nuclear DNA. BrdU positive cells were calculated and presented as percentage of total cells in the cultures. Averages and standard deviations were calculated from 3 representative fields from each of 3 independent experiments. FIG. 13e: Effect of T-oligo on pRb phosphorylation. Cells were treated as in FIG. 13a and were then collected for protein analysis by western blot using 30 μg total protein and probed for pRb-ser780*, ser795* and ser807/811* (pRb phosphorylated at serine 780, serine 795 and serine 807/811 respectively). Lanes D, T and C contain protein samples from cells treated with diluent, T-oligo and complementary oligo respectively. β-actin was used as a loading control.
Parallel cultures were treated as described in FIG. 13a. Cells were then washed once with PBS and refed with complete medium without additional treatment for 24 hours or 48 hours. FIG. 14a: SA-β-Gal activity. Cells were stained for SA-β-Gal activity. […]
TRF2^DN has been reported to induce a senescent phenotype in human fibrosarcoma HT-1080 cells. To determine whether exposure to the telomere 3′ overhang DNA (T-oligo) also induces senescence in these cells, HT-1080 cells (American Type Culture Collection; Manassas, Va.) were treated with either diluent alone, T-oligo or the complementary oligo as a control, for 4 days and then assessed for SA-β-Gal activity. […]

[4] = system: p95 phosphorylated at serine 343; test: p95 serine 343 phosphorylation after tankyrase siRNA, western blotting and densitometry; assay type: cell-based, human; conditions: 24 hours
Protocol: Paired cultures of human fibroblasts were treated once with tankyrase siRNA, with a non-specific siRNA (control) or were mock transfected as a second control. […] After an additional 24 hours, cells were collected and processed for western blotting using an antibody specific for p95 phosphorylated at serine 343, indicating p95 modification by activated ATM kinase. The film was then subjected to densitometry and the diluent control for each group of cells was set at 1.0 in arbitrary units (FIG. 19). As expected, in cells with normal tankyrase levels the T-oligo treated cells had twice the amount of phosphorylated p95, while the control oligo-treated or diluent-treated cells had only a 30-40% increase.

pGTTAGGGTTAG (DNA, 5' {P}, backbone not given here; listed as Homo sapiens) [Oligonucleotide 11mer-1]
clonogenic capacity [1]: 5.7±1.9 % of diluent treated control
state of pRb proteins after removal of oligo ([2]; HT-1080, 4 days 40 μM, then fresh medium without oligonucleotide): sustained in an active, inhibitory state
pRb phosphorylation on serine 780, serine 795 and serine 807/811 ([2]; HT-1080 cells, 40 μM, 4 days): striking and selective reduction
SA-β-Gal activity after removal of oligo ([3]; HT-1080, 4 days 40 μM, then 1 and 2 days fresh medium without oligonucleotide): increase in SA-β-Gal activity
SA-β-Gal positive cells ([3]; HT-1080 cells, 40 μM, 4 days): 80±7%
amount of phosphorylated p95 relative to diluent control ([4]; human fibroblasts with normal tankyrase levels): twice
level of p95 phosphorylation (densitometry, diluent control set at 1.0) ([4]; tankyrase knockdown group (tankyrase siRNA)): 1.1 arbitrary units
